{"source": "patent US8617871B2", "about": "“Method and culture medium for enhanced detection of Mycobacterium” (bioMerieux, Inc., priority 2009, dated 2013)", "key": {"M. avium": {"system": "M. avium", "type": "cell-based, Mycobacterium avium"}, "M. intracellulare": {"system": "M. intracellulare", "type": "cell-based, Mycobacterium intracellulare"}, "M. tuberculosis": {"system": "M. tuberculosis", "assay": "Time to detection (TTD) of growth in BacT/ALERT MP culture bottles", "type": "cell-based, Mycobacterium tuberculosis", "details": "for # Positive: of # Tested"}, "M. fortuitum": {"system": "M. fortuitum", "assay": "Time to detection (TTD) of growth in BacT/ALERT MP culture bottles", "type": "cell-based", "details": "M. fortuitum 6841; for # Positives: of # Tested"}, "M. kansasii": {"system": "M. kansasii", "assay": "Time to detection (TTD) of growth in BacT/ALERT MP culture bottles", "type": "cell-based, Mycobacterium kansasii", "details": "for # Positives: M. kansasii 12478, of # Tested; for effect on the growth (as determined by TTD of growth): Mycobacterium kansasii, compared to a culture medium that contained no antimicrobial agents", "description": "(§1) For the new NS, an autoclaved or new BacT/ALERT® MP bottle was used (as described hereinabove) and for conventional/old RF, conventional/old MP bottle (bioMérieux, Inc.) was used. […] The conventional MAS (using conventional/old RF) and new MAS formulas (using NS) were added to the second set of MP culture bottles. The experiment was performed with mycobacteria species at 0.5×10^3 CFU/ml and CRF cultures at 0.5×10^5 CFU/ml.\n(§2) The mycobacteria inoculum was 0.5×10^3 CFU/ml."}, "M. scrofulaceum": {"system": "M. scrofulaceum", "assay": "Time to detection (TTD) of growth in BacT/ALERT MP culture bottles", "type": "cell-based, Mycobacterium scrofulaceum", "details": "for # Positives: of # Tested; for effect on the growth (as determined by TTD of growth): Mycobacterium scrofulaceum, compared to a culture medium that contained no antimicrobial agents", "description": "as §1, §2"}, "[1]": {"system": "contaminating respiratory flora (CRF)", "type": "cell-based"}, "[2]": {"details": "M. scrofulaceum 19981, Media + VAN 3.5"}, "[3]": {"details": "M. tuberculosis 27294, Media + AZL 24"}}, "note": "Several values for one entry are separate records, joined by “and”; a condition that tells them apart may be missing. Equal entries are not always repeated. Where two headings read alike, the source gives them in different places.", "data": [{"smiles": "O=C(O)CCC(=O)C(=O)O", "note": "[α-keto glutarate, α-ketoglutarate]", "values": [{"measurement": "No. of positives", "setting": "M. avium", "value": 3}, {"measurement": "reduction in time to detection (TTD) of growth", "setting": "M. avium", "value": "two"}, {"measurement": "Avg. TTD", "setting": "M. intracellulare", "value": "9.0 days and 8.8 days"}, {"measurement": "No. of positives", "setting": "M. intracellulare", "value": 3}, {"measurement": "reduction in time to detection (TTD) of growth", "setting": "M. intracellulare", "value": "two"}, {"measurement": "No. of positives", "setting": "M. tuberculosis", "value": 3}, {"measurement": "reduction in time to detection (TTD) of growth", "setting": "M. tuberculosis", "value": "two"}]}, {"smiles": "CN[C@H](CC(C)C)C(=O)N[C@H]1C(=O)N[C@@H](CC(N)=O)C(=O)N[C@H]2C(=O)N[C@H]3C(=O)N[C@H](C(=O)N[C@H](C(=O)O)c4cc(O)cc(O)c4-c4cc3ccc4O)[C@H](O)c3ccc(c(Cl)c3)Oc3cc2cc(c3O[C@@H]2O[C@H](CO)[C@@H](O)[C@H](O)[C@H]2O[C@H]2C[C@](C)(N)[C@H](O)[C@H](C)O2)Oc2ccc(cc2Cl)[C@H]1O", "note": "[VAN, vancomycin]", "values": [{"measurement": "effect on the growth (as determined by TTD of growth)", "setting": "M. tuberculosis", "value": "negative effect"}, {"measurement": "Average TTD", "setting": "M. fortuitum; Media + VAN 1.75", "value": 4.7, "unit": "days"}, {"measurement": "# Positives", "setting": "M. fortuitum; Media + VAN 1.75", "value": 4.0}, {"measurement": "Average TTD", "setting": "M. fortuitum; Media + VAN 3.5", "value": 4.1, "unit": "days"}, {"measurement": "# Positives", "setting": "M. fortuitum; Media + VAN 3.5", "value": 4.0}, {"measurement": "Average TTD", "setting": "M. fortuitum; Media + VAN 7", "value": 4.8, "unit": "days"}, {"measurement": "# Positives", "setting": "M. fortuitum; Media + VAN 7", "value": 4.0}, {"measurement": "# Positives", "setting": "M. kansasii; Media + VAN 1.75", "value": 4.0}, {"measurement": "# Positives", "setting": "M. kansasii; Media + VAN 3.5", "value": 2.0}, {"measurement": "effect on the growth (as determined by TTD of growth)", "setting": "M. kansasii", "value": "negative effect"}, {"measurement": "# Positives", "setting": "M. scrofulaceum; M. scrofulaceum 19981, Media + VAN 1.75", "value": 4.0}, {"measurement": "Average TTD", "setting": "M. scrofulaceum; [2]", "value": 14.0, "unit": "days"}, {"measurement": "# Positives", "setting": "M. scrofulaceum; [2]", "value": 4.0}, {"measurement": "# Positives", "setting": "M. scrofulaceum; M. scrofulaceum 19981, Media + VAN 7", "value": 1.0}, {"measurement": "effect on the growth (as determined by TTD of growth)", "setting": "M. scrofulaceum", "value": "negative effect"}]}, {"smiles": "C[C@@H]1O[C@@H]1P(=O)(O)O", "note": "[fosfomycin]", "values": [{"measurement": "ability to suppress contaminating respiratory flora (CRF)", "setting": "[1]", "value": "the best choice for suppression of CRF"}]}, {"smiles": "CC1(C)S[C@@H]2[C@H](NC(=O)[C@H](NC(=O)N3CCNC3=O)c3ccccc3)C(=O)N2[C@H]1C(=O)O", "note": "[AZL, azlocillin]", "values": [{"measurement": "effect on the growth (as determined by TTD of growth)", "setting": "M. intracellulare", "value": "negative effect"}, {"measurement": "# Positive", "setting": "M. tuberculosis; M. tuberculosis 25177, Media + AZL12", "value": 4.0}, {"measurement": "# Positive", "setting": "M. tuberculosis; M. tuberculosis 25177, Media + AZL 24", "value": 2.0}, {"measurement": "# Positive", "setting": "M. tuberculosis; M. tuberculosis 25177, Media + AZL 48", "value": 2.0}, {"measurement": "# Positive", "setting": "M. tuberculosis; M. tuberculosis 27294, Media + AZL12", "value": 4.0}, {"measurement": "Average TTD", "setting": "M. tuberculosis; [3]", "value": 16.0, "unit": "days"}, {"measurement": "# Positive", "setting": "M. tuberculosis; [3]", "value": 4.0}, {"measurement": "# Positive", "setting": "M. tuberculosis; M. tuberculosis 27294, Media + AZL 48", "value": 4.0}, {"measurement": "effect on the growth (as determined by TTD of growth)", "setting": "M. tuberculosis; Mycobacterium tuberculosis, compared to a culture medium that contained no antimicrobial agents", "value": "negative effect"}, {"measurement": "effect on the growth (as determined by TTD of growth)", "setting": "M. kansasii", "value": "negative effect"}, {"measurement": "effect on the growth (as determined by TTD of growth)", "setting": "M. scrofulaceum", "value": "negative effect"}]}]}
